Experimental data published in US10426815B2, “Prevention and treatment of itch with an MRGPR antagonist” (THE GENERAL HOSPITAL CORPORATION, priority 2015, dated 2019).
Entries after “also recorded” stand apart in the source; their conditions may differ. Values belong to the substance of their own block, whether it stands above or below them.

Key:
[1] = target: T1, PAR2 (Homo sapiens, UniProt P55085); experiment: Calcium imaging of cells transfected with the GPCR (Table 1); type: cell-based
T1 construct: expressed in transfected cells; host or cells: HeLa cells by analogy with the other receptors
T1 sequence (P55085 26-397): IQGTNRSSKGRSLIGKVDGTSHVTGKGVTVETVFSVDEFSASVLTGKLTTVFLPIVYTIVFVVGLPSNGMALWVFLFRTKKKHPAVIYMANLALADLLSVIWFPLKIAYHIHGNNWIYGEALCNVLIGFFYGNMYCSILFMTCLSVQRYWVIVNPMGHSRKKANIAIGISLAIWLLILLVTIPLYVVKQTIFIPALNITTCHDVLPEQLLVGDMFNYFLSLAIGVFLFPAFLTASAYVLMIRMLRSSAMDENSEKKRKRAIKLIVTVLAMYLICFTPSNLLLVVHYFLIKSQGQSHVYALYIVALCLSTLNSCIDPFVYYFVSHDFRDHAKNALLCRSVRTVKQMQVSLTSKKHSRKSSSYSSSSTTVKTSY

[2] = target: T2, MrgX1 (human MRGPRX1) (Homo sapiens, UniProt Q96LB2); experiment: as above; type: cell-based
T2 construct: expressed in transfected cells; host or cells: HeLa cells, pcDNA3.1(-)
Experimental: Human NK1 cDNA was obtained from LIFE Technologies, PCR cloned with Xho I-Hind III ends and cloned into pcDNA3.1(−). Mouse NK2 and NK3 expression-ready vectors were obtained from […] (Piscataway, N.J.). All other Mrgprs (human MRGPRX1, human MRGPRX2, human MRGPRX3, human MRGPRX4, mouse MrgprA2a, mouse MrgprA2b, mouse MrgprA3, mouse MrgprA4, mouse MrgprA9, mouse MrgprA10, mouse MrgprB4 and mouse MrgprB5) were cloned by PCR from genomic DNAs and inserted into pcDNA3.1 (−).
10 μg of expression vector (human MRGPRX2, mouse MrgprA1 or NK1) and 10 μl of LIPOFECTAMINE 2000 transfection reagent were diluted into 0.5 ml of DMEM and separately left at room temperature (RT) for 5 min. They were then mixed and incubated at RT for 20 minutes prior to being added to HeLa cells. HeLa cells were grown to confluence, trypsinized and 1×10^6 cells were pelleted in a 15 ml tube by centrifugation at 1000 rpm for 5 minutes. The DMEM-LIPOFECTAMINE 2000-DNA mixture (1 ml) was then added to the cell pellet, suspended and incubated at RT for 5 minutes. 2 ml of complete DMEM with 10% FBS without antibiotics were added to the tube, mixed by inverting the tube, plated into a 96-well glass bottom plate at 50,000 cells/well, and placed in a 37° C. CO2 incubator for 3 hours. HeLa cells transfected with salmon sperm DNA were plated as a control. The medium was changed after 3 hours and left in the incubator. 24 hours after transfection, the medium in the wells was removed and 100 μl of complete DMEM containing 2 μM of FURA-2 were added to each well and left at room temperature in the dark for 1 hr.
Calcium imaging was performed immediately after loading cells with Fura-2, using a ZEISS Axiovert 200M microscope platform equipped with a flipping filter wheel for ratiometric imaging. Axiovision software, version 4.6 was used for calcium image analysis of the cells excited at 340 nm and 380 nm. Agonists were added at 15 seconds after the start of the excitation procedure. Antagonists were added five minutes before imaging with the agonists. Images were taken every 5 seconds, including at zero time, during a 90 second period or longer if required. The software later analyzed all images taken during each excitation period. Ratiometric changes were measured in 10-20 cells in each individual experiment. An average of the fluorescence of the cells in each image was calculated and plotted against time in seconds.

[3] = system: dorsal root ganglion neurons from NK1 mice; experiment: DRG culture and calcium imaging, NK1 knockout mice; type: cell-based, mouse
Experimental: (§1) Cervical to lumbar dorsal root ganglia (DRG) from C57/B6 or NK1 mice (1 month old) were dissected and maintained in DMEM (GIBCO, Langley, Okla., USA), containing […] L-glutamine (FISHER […], Pittsburgh, Pa., USA), 10% heat inactivated fetal bovine serum (GIBCO, Langley, Okla., USA), 5000 U/ml penicillin and 5000 μg/ml streptomycin (FISHER […], Pittsburgh, Pa., USA). Enzymatic digestion was carried out with 1 mg collagenase in 1 ml dispase (ROCHE Applied Sciences, IN, USA), at 37° C. for 70 min. The collagenase/dispase solution was removed, and DRGs were washed and suspended in DMEM containing 125 U DNAse (SIGMA, St Louis, USA) within which the ganglia were mechanically triturated using fire-polished glass pipettes. […] Cells were evaluated using a NIKON Eclipse Ti inverted microscope equipped with an Exi Aqua CCD camera (QIMAGING, British Columbia, Canada). Ca^2+ flux fluorescence was measured as an […] ratio at 340 nm and 380 nm (F340/380) (Lambda DG4, Sutter Instruments, Novato, Calif., US). The 340/380 ratiometric images were analyzed using NIKON Elements AR Software (NIKON, Melville, N.Y. USA). […]

[4] = system: WT DRGs; experiment: DRG culture and calcium imaging, WT mice; type: cell-based, mouse
Experimental: as §1

T2 sequence (Q96LB2 whole entry): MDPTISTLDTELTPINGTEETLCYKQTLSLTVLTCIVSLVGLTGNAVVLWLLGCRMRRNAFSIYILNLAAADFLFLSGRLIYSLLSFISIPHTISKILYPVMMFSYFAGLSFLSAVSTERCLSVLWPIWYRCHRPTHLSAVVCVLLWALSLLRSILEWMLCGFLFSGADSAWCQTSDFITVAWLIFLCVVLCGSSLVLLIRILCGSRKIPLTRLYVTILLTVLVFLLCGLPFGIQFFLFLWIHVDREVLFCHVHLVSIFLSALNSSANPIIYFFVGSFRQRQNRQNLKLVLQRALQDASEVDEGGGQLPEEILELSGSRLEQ

inhibition of PAR2 activation by 48/80 [1]: antagonizes | inhibition of PAR2 activation by SLIGRL [1]: not
Substance: Boc-Gln-D-Trp(Formyl)-Phe benzyl ester trifluoroacetate [QWF]
inhibition of human MRGPRX1 activation by chloroquine (CQ) ([2]; FIG. 7c: CQ 100 μM, QWF 100 μM): does not affect; also recorded: does not inhibit | inhibition of SP-induced activation of NK1 knockout DRG neurons ([3]; QWF 1 μM): significantly diminished; also recorded: blocked; also recorded: inhibits; also recorded: significantly decreases | decrease of the response of WT DRGs to compound 48/80 [4]: significantly decreases

activation of human MRGPRX1 by the substance (in words) ([2]; SP 10 μM (FIG. 9), chloroquine 100 μM (FIG. 7c)): does not activate
Substance: SP: inflammatory undecapeptide neuropeptide of the tachykinin family, synthesized by GenScript
activation of NK1 knockout DRG neurons by SP ([3]; cultured DRGs, calcium imaging): activated

activation of PAR2 by the substance (in words) [1]: activates
Substance: SLIGRL: tethered hexapeptide ligand of mouse PAR2 (SEQ ID NO: 7)
